Experimental findings from patent US20180273531A1, “PYRIMIDINE COMPOUND AND MEDICAL USE THEREOF” (Japan Tobacco Inc., priority 2004, published 2018) are described below.

Common to all, as to format: cell-based
The subject of experiment [1] is colorectal cancer cell line HT-29 cells. Description: Growth inhibitory effect against cancer cell lines (3H-thymidine uptake), HT-29. The following applies: Homo sapiens, HT-29, inhibition of 3H-thymidine uptake; test substance 18 hrs, then 3H-thymidine 6 hrs; triplicate. Summed up:
(§1)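 IC50 = concentration reducing ^3H-thymidine incorporation to 50% of DMSO control, measured in triplicate. Compound added 24 hrs after plating (1.0×10^4 cells/well); label (0.25 μCi/well) given after 18 hrs of treatment, followed by 6 hrs further culture and scintillation counting of harvested cells.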

In experiment [2] the test system is ACHN cells or HT-29 cells. The experiment is described as follows: Cell cycle analysis (flow cytometry, CycleTEST PLUS). The note with it: test substance less than 10 μM, 24 hrs, compared to DMSO, n=2, read-out: CELL RATIO OF G0/G1 PHASE. On the procedure:
ACHN cells or HT-29 cells were cultured in a 6 well plate at 2.5×10^5 cells/1.8 mL/well for 24 hrs, then a test substance (less than 10 μM) dissolved in DMSO was added. After 24 hrs, cells were detached using trypsin-EDTA and the DNA content of single cell was analyzed by flow cytometry method using a CycleTEST PLUS (BECKTON DICKINSON) kit, and the proportion of the cells in the G0/G1 phase·S phase·G2/M phase was calculated. As a control, DMSO was used and the test was performed with n=2.
In general terms: Flow cytometry measures light scatter and fluorescence of single cells or particles in a stream.

For experiment [3], the system named is p15 protein. The experiment is described as follows: Evaluation of p15 induction activity (Western blotting). The following applies: test substance 0.1 μM, 24 hrs, ACHN cells or HT-29 cells, compared to DMSO, n=2. Summed up:
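p15 protein quantified by densitometry of anti-p15 Western blots (10 μg protein per lane, mean of n=2). Samples came from HT-29 or ACHN cells given 0.1 μM compound for 24 h after 24 h plating, with DMSO as control.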
(In western blotting, separated proteins are transferred to a membrane and probed.)

Experiment [4] deals with Renal cancer cell line ACHN cell. The experiment is described as follows: Growth inhibitory effect against cancer cell lines (3H-thymidine uptake), ACHN. The following applies: Homo sapiens, ACHN. Summed up: as §1
Experiment [5] has as its system p27 protein. The experiment is described as follows: p27 protein induction test (Western blotting). The following applies: test substance (0.1 1M), 24 hrs, ACHN cells or HT-29 cells, compared to DMSO, n=2. Summed up: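 p27 level taken as anti-p27 band density by densitometry, mean of n=2, with DMSO as control. Samples loaded at amount equivalent to 10 μg BSA. Cells were ACHN or HT-29, exposed 24 h to […] test substance after 24 h pre-culture.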

On to `Cn1c(=O)cc(Nc2ccc(Cl)cc2)c2c(=O)n(-c3ccccc3)c(=O)n(-c3ccccc3)c21` [Example 1-2], for which the IC50 in experiment [1] is 0.1 to 1 µM. Besides, in experiment [2], the fold induction was no less than 1.2.
Molecule `Cn1c(=O)cc(Nc2ccccc2Cl)c2c(=O)n(-c3ccccc3)c(=O)n(-c3ccccc3)c21` [Example 1-4] had a fold induction at 0.1 µM in experiment [3] of no less than 1.5. Also, the fold induction in experiment [2] is no less than 1.2.
Taken in the same sequence, the figures for `Cc1ccc(Nc2cc(=O)n(C)c3c2c(=O)n(-c2ccccc2)c(=O)n3-c2ccccc2)cc1` [Example 1-6] were no less than 1.5 and no less than 1.2.
Molecule `CN(C)c1ccc(Nc2cc(=O)n(C)c3c2c(=O)n(-c2ccccc2)c(=O)n3-c2ccccc2)cc1` [Example 1-7] registered a fold induction at 0.1 µM in experiment [3] of no less than 1.5. The molecule further had an IC50 in experiment [1] of 0.1 to 1 µM. Further, the fold induction in experiment [2] was no less than 1.2.
The molecule `COc1ccc(Nc2cc(=O)n(C)c3c2c(=O)n(-c2ccccc2)c(=O)n3-c2ccccc2)cc1` [Example 1-9] gave a fold induction at 0.1 µM in experiment [3] of no less than 1.5. Further, in experiment [2], the fold induction was no less than 1.2.
As to `Cn1c(=O)cc(Nc2ccc(Br)cc2)c2c(=O)n(-c3ccccc3)c(=O)n(-c3ccccc3)c21` [Example 1-11], in experiment [3], the fold induction at 0.1 µM is no less than 1.5. In experiment [1], the IC50 lay in the range of 0.1 to 1 µM. The fold induction in experiment [2] is no less than 1.2.
Turning to `CC(C)c1ccc(Nc2cc(=O)n(C)c3c2c(=O)n(-c2ccccc2)c(=O)n3-c2ccccc2)cc1` [Example 1-25], the fold induction in experiment [2] was no less than 1.2.
The molecule `Cn1c(=O)cc(Nc2ccc(Cl)cc2Cl)c2c(=O)n(-c3ccccc3)c(=O)n(-c3ccccc3)c21` [Example 1-26] gave a fold induction at 0.1 µM in experiment [3] of no less than 1.5. Moreover, the fold induction in experiment [2] is no less than 1.2.
The molecule `Cn1c(=O)cc(Nc2ccc(C(F)(F)F)cc2)c2c(=O)n(-c3ccccc3)c(=O)n(-c3ccccc3)c21` [Example 1-33] came in with a fold induction at 0.1 µM in experiment [3] of no less than 1.5. In addition, the fold induction in experiment [2] is no less than 1.2.
Turning to `Cc1ccc(Nc2cc(=O)n(C)c3c2c(=O)n(-c2ccccc2)c(=O)n3-c2ccccc2)c(Cl)c1` [Example 1-34], the fold induction at 0.1 µM in experiment [3] is no less than 1.5. The fold induction in experiment [2] is no less than 1.2.
For the molecule `CCc1ccccc1Nc1cc(=O)n(C)c2c1c(=O)n(-c1ccccc1)c(=O)n2-c1ccccc1` [Example 1-38], in experiment [3], the fold induction at 0.1 µM is no less than 1.5. Further, the fold induction in experiment [2] is no less than 1.2.
As to `Cc1c(Nc2ccc(Cl)cc2)c2c(=O)n(-c3ccccc3)c(=O)n(-c3ccccc3)c2n(C)c1=O` [Example 1-43], the fold induction at 0.1 µM in experiment [3] is no less than 1.5. Besides, the fold induction in experiment [2] was no less than 1.2.
For `CNc1ccc(Nc2cc(=O)n(C)c3c2c(=O)n(-c2ccccc2)c(=O)n3-c2ccccc2)cc1` [Example 1-49], in experiment [3], the fold induction at 0.1 µM was no less than 1.5. For the same molecule, the fold induction in experiment [2] is no less than 1.2.
As to `CCCc1ccccc1Nc1cc(=O)n(C)c2c1c(=O)n(-c1ccccc1)c(=O)n2-c1ccccc1` [Example 1-50], in experiment [2], the fold induction is no less than 1.2.
`CCCCc1ccccc1Nc1cc(=O)n(C)c2c1c(=O)n(-c1ccccc1)c(=O)n2-c1ccccc1` [Example 1-51] returned a fold induction at 0.1 µM in experiment [3] of no less than 1.5. Further, the fold induction in experiment [2] was no less than 1.2.
The molecule `Cc1cc(N(C)C)ccc1Nc1cc(=O)n(C)c2c1c(=O)n(-c1ccccc1)c(=O)n2-c1ccccc1` [Example 1-55] displayed a fold induction at 0.1 µM in experiment [3] of no less than 1.5. The half-maximal inhibitory concentration (IC50) in experiment [1] is 0.1 to 1 µM. The fold induction in experiment [2] is no less than 1.2.
In turn, `Cn1c(=O)cc(Nc2ccc(Cl)cc2)c2c(=O)n(-c3ccsc3)c(=O)n(-c3ccsc3)c21` [Example 1-77] showed a fold induction at 0.1 µM in experiment [3] of no less than 1.5. Also, the fold induction in experiment [2] was no less than 1.2.
For `CCn1c(=O)c2c(Nc3ccc(Cl)cc3)cc(=O)n(C)c2n(-c2ccccc2)c1=O` [Example 1-78], the fold induction at 0.1 µM in experiment [3] was no less than 1.5. Besides, the fold induction in experiment [2] was no less than 1.2.
Molecule `Cn1c(=O)cc(Nc2ccc(Cl)cc2)c2c(=O)n(C3CC3)c(=O)n(-c3ccccc3)c21` [Example 1-84] displayed a fold induction at 0.1 µM in experiment [3] of no less than 1.5. In experiment [2], the fold induction is no less than 1.2.
`Cc1ccccc1-n1c(=O)n(C)c(=O)c2c(Nc3ccc(Cl)cc3)cc(=O)n(C)c21` [Example 1-85] yielded a fold induction at 0.1 µM in experiment [3] of no less than 1.5. The fold induction in experiment [2] is no less than 1.2.
Molecule `Cc1cccc(-n2c(=O)n(C)c(=O)c3c(Nc4ccc(Cl)cc4)cc(=O)n(C)c32)c1` [Example 1-86] came in with a fold induction at 0.1 µM in experiment [3] of no less than 1.5. Moreover, in experiment [2], the fold induction was no less than 1.2.
In experiment [3], `CN(C)c1ccc(Nc2cc(=O)n(C)c3c2c(=O)n(C2CC2)c(=O)n3-c2ccccc2)cc1` [Example 1-88] came in with a fold induction at 0.1 µM of no less than 1.5. The IC50 in experiment [1] and in experiment [4] was 0.1 to 1 µM in each case. In addition, the fold induction in experiment [2] is no less than 1.2.
In the case of `Cn1c(=O)cc(Nc2ccc(Br)cc2)c2c(=O)n(C3CC3)c(=O)n(-c3ccccc3)c21` [Example 1-89], the fold induction at 0.1 µM in experiment [3] and in experiment [5] was no less than 1.5 each time. Moreover, the IC50 in experiment [1] lay within 0.01 to 0.1 µM; in experiment [4], 0.1 to 1 µM. Moreover, the fold induction in experiment [2] was no less than 1.2.
Consider `Cn1c(=O)cc(Nc2ccc(Cl)cc2)c2c(=O)n(CC(F)(F)F)c(=O)n(-c3ccccc3)c21` [Example 1-90], for which the fold induction in experiment [2] is no less than 1.2.
Regarding `CCCc1c(Nc2ccc(Cl)cc2)c2c(=O)n(-c3ccccc3)c(=O)n(-c3ccccc3)c2n(C)c1=O` [Example 1-91], in experiment [2], the fold induction is no less than 1.2.
`Cn1c(=O)cc(Nc2ccc(Br)cc2)c2c(=O)n(CC(F)(F)F)c(=O)n(-c3ccccc3)c21` [Example 1-92] came in with a fold induction at 0.1 µM in experiment [3] of no less than 1.5. Further, in experiment [2], the fold induction is no less than 1.2.
Take `CN(C)c1ccc(Nc2cc(=O)n(C)c3c2c(=O)n(CC(F)(F)F)c(=O)n3-c2ccccc2)cc1` [Example 1-93]: in experiment [3], the fold induction at 0.1 µM was no less than 1.5. In experiment [2], the fold induction is no less than 1.2.
In turn, `CCn1c(=O)c2c(Nc3ccc(Cl)cc3)cc(=O)n(C)c2n(-c2ccc(Cl)cc2)c1=O` [Example 1-94] displayed a fold induction at 0.1 µM in experiment [3] of no less than 1.5. Further, in experiment [2], the fold induction at up to 10 µM is no less than 1.2.
With `Cc1ccccc1-n1c(=O)n(C)c(=O)c2c(Nc3ccc(Br)cc3)cc(=O)n(C)c21` [Example 1-95], in experiment [3], the fold induction at 0.1 µM is no less than 1.5. Also, the half-maximal inhibitory concentration (IC50) in experiment [1] was 0.1 to 1 µM. Also, the fold induction in experiment [2] was no less than 1.2.
The molecule `CCn1c(=O)c2c(Nc3ccc(N(C)C)cc3)cc(=O)n(C)c2n(-c2ccccc2)c1=O` [Example 1-97] registered a fold induction at 0.1 µM in experiment [3] of no less than 1.5. Further, the IC50 in experiment [1] was in the range of 0.1 to 1 µM. For the same molecule, in experiment [2], the fold induction is no less than 1.2.
In the case of `Cc1ccccc1-n1c(=O)n(C)c(=O)c2c(Nc3ccc(N(C)C)cc3)cc(=O)n(C)c21` [Example 1-99], in experiment [3], the fold induction at 0.1 µM is no less than 1.5. The same molecule yielded a concentration for half-maximal inhibition (IC50) in experiment [1] of 0.1 to 1 µM. In experiment [2], the fold induction was no less than 1.2.
`Cn1c(=O)cc(Nc2ccc(Cl)cc2)c2c(=O)n(C3CC3)c(=O)n(-c3ccccc3F)c21` [Example 1-100] gave a fold induction at 0.1 µM in experiment [3] of no less than 1.5. Also, in experiment [1], the IC50 was 0.1 to 1 µM. The fold induction in experiment [2] was no less than 1.2.
Regarding `Cn1c(=O)cc(Nc2ccc(Cl)cc2)c2c(=O)n(C3CC3)c(=O)n(-c3ccccc3C(F)(F)F)c21` [Example 1-101], the fold induction in experiment [2] was no less than 1.2.
In the case of `Cc1ccccc1-n1c(=O)n(C2CC2)c(=O)c2c(Nc3ccc(Cl)cc3)cc(=O)n(C)c21` [Example 1-102], the fold induction at 0.1 µM in experiment [3] was no less than 1.5. Besides, the fold induction in experiment [2] was no less than 1.2.
Taken in the same sequence, the figures for `CCc1ccccc1-n1c(=O)n(C2CC2)c(=O)c2c(Nc3ccc(Cl)cc3)cc(=O)n(C)c21` [Example 1-103] were no less than 1.5 and no less than 1.2.
In turn, `COc1ccccc1-n1c(=O)n(C2CC2)c(=O)c2c(Nc3ccc(Cl)cc3)cc(=O)n(C)c21` [Example 1-104] gave a fold induction at 0.1 µM in experiment [3] of no less than 1.5. In experiment [2], the fold induction is no less than 1.2.
On to `C#Cc1ccc(Nc2c3c(=O)n(C4CC4)c(=O)n(-c4cccc(NC(C)=O)c4)c3c(C)c(=O)n2C)c(F)c1` [Example 4-3, N-{3-[3-cyclopropyl-5-(4-ethynyl-2-fluorophenylamino)-6,8-dimethyl-2,4,7-trioxo-3,4,6,7-tetrahydro-2H-pyrido[4,3-d]pyrimidin-1-yl]phenyl}acetamide], for which the fold induction at 0.1 µM in experiment [3] and in experiment [5] was no less than 1.5 each time. Besides, the IC50 in experiment [1] was less than 0.01 µM; in experiment [4], 0.01 to 0.1 µM. Besides, the fold induction at up to 10 µM in experiment [2] is no less than 1.2.
For the molecule `Cc1c(=O)n(C)c(Nc2ccc(I)cc2F)c2c(=O)n(C3CC3)c(=O)n(-c3cccc(NC(=O)CO)c3)c12` [Example 4-82], the fold induction at 0.1 µM in experiment [3] and in experiment [5] was no less than 1.5 throughout. In addition, the figures for the IC50 in experiment [1] and in experiment [4] were less than 0.01 µM and 0.01 to 0.1 µM, respectively. In experiment [2], the fold induction at up to 10 µM was no less than 1.2.

As usually defined, the IC50 is the concentration at which inhibition is half-maximal. Read a low IC50 as greater potency.
